Experimental data from patent US12606508B2, “Cannabis extracts and uses thereof” (priority 2020, dated 2026).
Entries after “also recorded” stand apart in the source; their conditions may differ. Where two headings read alike, the source gives them in different places.

What was measured:
human CB2 receptor = target: T1, human CB2 receptor (Homo sapiens, UniProt P34972); test: Radioligand binding assay at human CB2 receptor ([^3H]WIN 55212-2 displacement, Eurofins Discovery)
T1 construct: Eurofins Discovery (contract assay)
T1 sequence (P34972 whole entry): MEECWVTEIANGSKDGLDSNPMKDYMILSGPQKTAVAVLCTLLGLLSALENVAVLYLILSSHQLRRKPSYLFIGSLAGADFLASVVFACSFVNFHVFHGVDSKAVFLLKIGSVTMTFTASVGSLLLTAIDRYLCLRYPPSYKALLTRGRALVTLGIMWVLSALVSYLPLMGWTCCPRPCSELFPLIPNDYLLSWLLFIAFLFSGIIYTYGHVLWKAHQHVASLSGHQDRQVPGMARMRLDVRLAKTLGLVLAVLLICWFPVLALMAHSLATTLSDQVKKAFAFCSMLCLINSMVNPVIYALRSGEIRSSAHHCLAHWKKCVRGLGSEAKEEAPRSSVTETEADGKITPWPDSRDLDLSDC
Description: 2.2.4 Binding affinity at human CB1 and CB2 receptors. The binding affinity of (−)-trans-Δ^9-THCB against purified human CB1 and CB2 receptors was determined in a radioligand binding assay. The capability of the ligand to displace radiolabeled [^3H]
Binding at CB1 and CB2 Receptors. The binding affinity of (−)-trans-Δ^9-THCB against human CB1 and CB2 receptors was determined in a radioligand binding assay performed by Eurofins Discovery. The compound was tested at ten concentrations, ranging from 1 nM to 30 μM, in duplicate. The compound binding was calculated as a % inhibition of the binding of a radioactively labeled ligand specific for each target. […] The results were expressed as a percent inhibition of control specific binding obtained in the presence of the tested compounds using eq. 1.
The IC50 values (concentration causing a half-maximal inhibition of control specific binding) were determined by non-linear regression analysis of the competition curves generated with mean replicate values (eq. 2)^55.
Where Y is the specific binding, A is the left asymptote of the curve, D is the right asymptote f the curve, C is the compound concentration, C50 is the IC50 value and nH is the slope factor. […] The inhibition constants (Ki) were calculated using the Cheng Prusoff equation: […]
3.1.4 Binding affinity at human CB1 and CB2 receptors. […] The binding affinity of (−)-trans-Δ^9-THCP against human CB1 and CB2 receptors was assessed by Eurofins Discovery using a radioligand binding assay. […] Eq. 1 was employed to calculate the percent inhibition of control specific binding obtained in the presence of the tested compounds. […]
Where Y is the specific binding, A is the left asymptote of the curve, D is the right asymptote f the curve, C is the compound concentration, C50 is the IC50 value and nH is the slope factor. […] The inhibition constants (Ki) were determined using the Cheng Prusoff equation (eq. 3): […]

C57BL6/J mice [1] = test: Tetrad: open field test (spontaneous/motor activity); format: in vivo; conditions: mean±SEM
Description: (§1) Mice (n=4) were treated with Δ^9-THCB (10 and 20 mg/kg) or vehicle (0.9% saline and 0.05% DMSO) by intraperitoneal (i.p.) administration. Mice were evaluated for hypomotility (open field test), hypothermia (body temperature test), antinociceptive (hot plate test), and cataleptic effects (bar test), using the tetrad tests as described in the protocol by Metna-Laurent M. et al.^62 Statistical analysis was performed using the Kruskall-Wallis test and Dunn's post hoc tests.
Open field test. The open field test (OFT) was performed 30 min after drug or vehicle injection. The apparatus was cleaned before each test using a 70% EtOH solution. After randomly assigning naïve mice to a treatment group, the operator started to record animal behaviors, which were stored and analyzed using an automated behavioral tracking system (Smart v3.0, Panlab Harvard Apparatus). Mice were placed in an OFT arena (1×w×h: 44 cm×44 cm×30 cm), and ambulatory activity (total distance travelled in cm), was recorded for 15 min and analyzed.
(§2) Male C57BL6/J mice (7 weeks old; n=5) were treated with Δ^9-THCP (10, 5 and 2.5 mg/kg) or vehicle (1:1:18; ethanol:Kolliphor EL:0.9% saline) by i.p. administration. Mice were evaluated for hypomotility (open field test), hypothermia (body temperature), antinociceptive (hot plate test), and cataleptic (bar test) effects, using the tetrad tests^58. Statistical analysis was performed using the Kruskall-Wallis test and Dunn's post hoc tests.
Openfield. The open field test was used for the evaluation of motor activity. Behavioral assays were performed 30 min after drug (or vehicle) injection. The apparatus was cleaned before each behavioral session by solution of 70% ethanol. Naïve mice were randomly assigned to a treatment group. Behaviors were recorded, stored, and analyzed using an automated behavioral tracking system (Smart v3.0, Panlab Harvard Apparatus). Mice were placed in an OFT arena (1×w×h: 25 cm×25 cm), and ambulatory activity (total distance travelled in centimeter), were recorded for 15 minutes and analyzed.

C57BL6/J mice [2] = test: Tetrad: hot plate test (analgesia); format: in vivo; conditions: 52° C., 85 min after administration, mean±SEM
Description: as §1
Hotplate test. Each mouse was placed on a hot plate (Ugo Basile), which was kept at a constant temperature of 52° C. The nociceptive response (NR) was recorded as characteristic actions of the mouse like licking of the hind paws, as well as jumping. The latency to the NR was measured in sec 85 minutes after drug or vehicle administration. A 30 or 60 sec cut-off time was used in order to prevent tissue damage.
as §2
Hot plate. Changes in nociception were evaluated by the hot plate test. On the day of experiment each mouse was placed on a hot plate (Ugo Basiele) at a constant temperature of 52° C. Licking of the hind paws, as well as jumping, were considered as a nociceptive response (NR) and the latency was measured in seconds 85 minutes after drug or vehicle administration. The latency to the NR was recorded and a 30 or 60 s cut-off time was used in order to prevent tissue damage.

C57BL6/J mice [3] = test: Tetrad: body (rectal) temperature test; format: in vivo; conditions: mean±SEM; for change in body temperature: difference to basal temperature, n=5, vehicle 0.40; for change in rectal temperature: 50 min after administration vs basal, n=4, vehicle 0.53
Description: as §1
Body temperature test. A probe was gently inserted for 1 cm into the mouse rectum after the animal had been immobilized. The probe was washed and cleaned with 70% ethanol and the dried with a paper towel. The body temperature was measured after stabilization of the value in ° C. in basal conditions and at 50 minutes after drug or vehicle administration.
as §2
Body temperature. The mouse was immobilized and the probe gently inserted for 1 cm into the rectum until stabilization of temperature. Between each mouse the probe was cleaned with 70% ethanol and dried with paper towel.

C57BL6/J mice [4] = test: Tetrad test, overall cannabimimetic profile; format: in vivo; conditions: i.p.
Description: Tetrad test. Male C57BL6/J mice 6-8 weeks (Envigo, Italy) were housed under controlled conditions (12 h light/12 h dark cycle; temperature 20-22 C; humidity 55-60%) with chow and tap water available ad libitum. All surgeries and experimental procedures were approved by the Animal Ethics Committee of University of Campania “L. Vanvitelli,” Naples. Animal care was in compliance with Italian (D.L. 116/92) and European Commission (O.J. of E.C. L358/1 […]) regulations on the protection of laboratory animals. All efforts were made to minimize animal suffering and to reduce the number of animals used. All the experiments were performed in a randomized manner by the same operator blind to pharmacological treatments.
as §1, §2

Row | SMILES | Ki (human CB2 receptor) | open field: distance travelled (C57BL6/J mice [1]; Δ^9-THCP 2.5 mg/kg i.p., n=5, vehicle 6888) | open field: distance travelled (C57BL6/J mice [1]; Δ^9-THCP 5 mg/kg i.p., n=5, vehicle 6888) | open field: distance travelled (C57BL6/J mice [1]; Δ^9-THCP 10 mg/kg i.p., n=5, vehicle 6888) | hot plate: latency to nociceptive response (C57BL6/J mice [2]; Δ^9-THCP 2.5 mg/kg i.p., not statistically significant, n=5, vehicle 19.20) | hot plate: latency to nociceptive response (C57BL6/J mice [2]; Δ^9-THCP 5 mg/kg i.p., n=5, vehicle 19.20) | hot plate: latency to nociceptive response (C57BL6/J mice [2]; Δ^9-THCP 10 mg/kg i.p., n=5, vehicle 19.20) | change in body temperature (C57BL6/J mice [3]; Δ^9-THCP 2.5 mg/kg i.p.) | change in body temperature (C57BL6/J mice [3]; Δ^9-THCP 5 mg/kg i.p.) | change in body temperature (C57BL6/J mice [3]; Δ^9-THCP 10 mg/kg i.p.) | cannabimimetic profile in the tetrad test (in words) (C57BL6/J mice [4]) | dose at which active in three of the four tetrad tests (C57BL6/J mice [4]) | Ki (human CB2 receptor; Cheng Prusoff from IC50, [^3H]WIN 55212-2 radioligand, read-out: hCB2 Ki) | IC50 (human CB2 receptor; displacement of [^3H]WIN 55212-2, ten concentrations 1 nM to 30 μM, duplicate, SD within ±10%, read-out: hCB2 IC50) | open field: distance travelled (C57BL6/J mice [1]; Δ^9-THCB 10 mg/kg i.p., 30 min after injection, 15 min, n=4, vehicle 3283) | open field: distance travelled (C57BL6/J mice [1]; Δ^9-THCB 20 mg/kg i.p., 30 min after injection, 15 min, n=4, vehicle 3283) | hot plate: latency to nociceptive response (C57BL6/J mice [2]; Δ^9-THCB 10 mg/kg i.p., n=4, vehicle 10.15) | hot plate: latency to nociceptive response (C57BL6/J mice [2]; Δ^9-THCB 20 mg/kg i.p., n=4, vehicle 10.15) | change in rectal temperature (C57BL6/J mice [3]; Δ^9-THCB 10 mg/kg i.p.) | change in rectal temperature (C57BL6/J mice [3]; Δ^9-THCB 20 mg/kg i.p.)
1 | CCCCCCCc1cc(O)c2c(c1)OC(C)(C)[C@@H]1CCC(C)=C[C@@H]21 [Δ^9-THCP, (6aR,10aR)-3-heptyl-6,6,9-trimethyl-6a,7,8,10a-tetrahydro-6H-benzo[c]chromen-1-ol] | 0.0062 µM | 4072 cm | 127.5 cm | 166.8 cm | 40.22 s | 54.38 s | 57.0 s | −4.12 °C | −5.28 °C | −7.10 °C | THC-like cannabimimetic activity; also recorded: miming the properties of full CB1 receptor agonists | 5 mg/kg | – | – | – | – | – | – | – | –
2 | CCCCc1cc(O)c2c(c1)OC(C)(C)[C@@H]1CCC(C)=C[C@@H]21 [Δ^9-THCB, (6aR,10aR)-3-butyl-6,6,9-trimethyl-6a,7,8,10a-tetrahydro-6H-benzo[c]chromen-1-ol] | – | – | – | – | – | – | – | – | – | – | partial agonistic activity; also recorded: partial agonist for CB1 receptor | – | 0.051 µM | 0.079 µM | 3220 cm | 3591 cm | 7.94 s | 17.50 s | −0.28 °C | 0.40 °C
